Data on 11 compounds can be found in patent publication US10556907B2 (AbbVie Inc., priority 2015, dated 2020).

pEC50: −log10 of the molar value. Like-named read-outs stand apart in the source and are kept apart here. Bounds are passed on as bounds.

Holding throughout (test): Method 1: intracellular Ca2+ release (FLIPR, Calcium 5) in recombinant CHO-K1 cells
Assay type in all cases: cell-based

The target of one experiment is T1, human S1PR1 receptor (Homo sapiens, UniProt P21453).
T1 construct: host or cells: CHO-K1
T1 sequence (P21453 whole entry): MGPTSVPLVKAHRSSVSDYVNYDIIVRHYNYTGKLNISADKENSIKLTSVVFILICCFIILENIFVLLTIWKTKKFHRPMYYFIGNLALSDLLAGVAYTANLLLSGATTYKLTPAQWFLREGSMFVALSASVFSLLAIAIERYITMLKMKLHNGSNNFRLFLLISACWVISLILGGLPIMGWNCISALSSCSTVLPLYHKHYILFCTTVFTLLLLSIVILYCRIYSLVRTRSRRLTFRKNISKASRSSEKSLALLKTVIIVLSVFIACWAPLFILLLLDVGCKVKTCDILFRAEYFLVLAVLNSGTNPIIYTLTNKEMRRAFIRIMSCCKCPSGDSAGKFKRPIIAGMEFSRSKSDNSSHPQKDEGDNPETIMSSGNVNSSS
The conditions noted are these: (1): determined with method 1; read-out: S1P1 EC50. The procedure:
(§1) Agonistic activity was measured using two different methods, described below.
(§2) Method 1. Intracellular Ca^2+ Release
(§3) Agonist potency and intrinsic activity was assessed by measurement of intracellular Ca^2+ release. Recombinant CHO-K1 cells (Euroscreen, Brussels, Belgium) expressing human S1PR5, S1PR1, S1PR3 or S1PR4 receptors, aequorin, and GTP binding protein Gq/i5 were cultured using a medium containing nutrient mixture F-12 Ham (Sigma-Aldrich) with 10% FBS, and 100 μg/mL gentamicin and equilibrated at 5% CO2.
(§4) 15.000 cells in 20 μL medium were seeded into Biocoat poly-D-Lysine coated 384 well plates (Becton Dickinson #35-6663) and grown to 95% confluency after 24 h.
(§5) Culture medium was replaced by an assay buffer consisting of HBBS with Ca^2+ and Mg^2+ (Invitrogen #14025-050), 20 mmol/L Hepes (Sigma-Aldrich #H-3375), 2.5 mmol/L probenecid (Sigma-Aldrich #P-8761, and 0.1% BSA (Sigma-Aldrich #A-7030) pH 7.4. The Calcium 5 no-wash FLIPR assay kit (Molecular Devices #5000625) was performed as described in the kit instructions. Cells were incubated with Calcium 5 dye for 1 h at 37° C., 5% CO2 in the dark. After 45 min adaptation to RT assessment of agonist stimulation of intracellular Ca^2+ release was performed by addition of test compounds at concentrations obtained by serial dilution. Phospho-fingolimod was used as positive control. Antagonists were pre-incubated for 10 min with cells before addition of the agonist (phospho-fingolimod at EC80). Measurements were performed using a fluorometric imaging plate reader FLIPR® tetra (Molecular Devices). Agonist at the human S1P receptors were characterized by deducing EC50 (potency) values from a nonlinear fit to the measured fluorescence raw data after normalization to the reference agonist (phospho-fingolimod) curve.

In another experiment the target is T2, human S1PR3 receptor (Homo sapiens, UniProt Q99500).
T2 construct: host or cells: CHO-K1
T2 sequence (Q99500 whole entry): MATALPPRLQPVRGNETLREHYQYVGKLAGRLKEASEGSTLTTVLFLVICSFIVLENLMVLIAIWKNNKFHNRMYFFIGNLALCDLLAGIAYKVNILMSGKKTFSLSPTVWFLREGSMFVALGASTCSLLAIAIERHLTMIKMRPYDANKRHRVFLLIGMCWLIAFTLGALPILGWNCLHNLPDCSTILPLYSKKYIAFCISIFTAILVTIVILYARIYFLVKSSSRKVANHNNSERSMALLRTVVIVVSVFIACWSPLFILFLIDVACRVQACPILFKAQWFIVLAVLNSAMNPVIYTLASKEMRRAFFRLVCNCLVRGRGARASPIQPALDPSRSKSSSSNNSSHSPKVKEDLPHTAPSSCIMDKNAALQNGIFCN
The note with it: (1): determined with method 1; read-out: S1P3 EC50. The procedure: as §1, §2, §3, §4, §5

In another experiment the target is T3, human S1PR5 receptor (Homo sapiens, UniProt Q9H228).
T3 construct: host or cells: CHO-K1
T3 sequence (Q9H228 whole entry): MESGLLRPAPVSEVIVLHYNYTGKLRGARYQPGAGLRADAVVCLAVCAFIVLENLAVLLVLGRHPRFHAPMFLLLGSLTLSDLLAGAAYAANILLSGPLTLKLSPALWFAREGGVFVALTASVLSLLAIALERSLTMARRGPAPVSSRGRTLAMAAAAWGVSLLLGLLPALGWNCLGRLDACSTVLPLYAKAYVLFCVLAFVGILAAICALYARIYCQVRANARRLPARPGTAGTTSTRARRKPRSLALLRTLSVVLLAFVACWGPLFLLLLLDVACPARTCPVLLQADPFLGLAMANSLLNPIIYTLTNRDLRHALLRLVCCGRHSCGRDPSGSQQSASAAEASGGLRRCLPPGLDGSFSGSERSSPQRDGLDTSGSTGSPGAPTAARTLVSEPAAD
The procedure:
as §1, §2, §3, §4, §5

Where [1] appears, read: agonist potency, determined with method 1 (symbols A-D), read-out: S1P5 EC50 range.

For the compound `CC(CC(=O)O)CN1CCc2nc(-c3ccc(OCc4ccc(Cl)cc4)cc3)ncc2C1` (single isomer, unassigned; (-)) [Compound 213, (−)-4-(2-(4-((4-chlorobenzyl)oxy)phenyl)-7,8-dihydropyrido[4,3-d]pyrimidin-6(5H)-yl)-3-methylbutanoic acid], the pEC50 is less than 6.00 at human S1PR1 receptor, less than 6.00 at human S1PR3 receptor and 7.00 to 8.00 on human S1PR5 receptor (setting [1]).
In the case of `CC(CN1CCc2nc(-c3ccc(OCc4cccc(Cl)c4)cc3)ncc2C1)C(=O)O` (stereo not shown) [Compound 10, 3-(2-(4-((3-chlorobenzyl)oxy)phenyl)-7,8-dihydropyrido[4,3-d]pyrimidin-6(5H)-yl)-2-methylpropanoic acid], the results for the pEC50 at human S1PR1 receptor, at human S1PR3 receptor and on human S1PR5 receptor (setting [1]) were less than 6.00, less than 6.00 and more than 8.00, respectively.
For the compound `CC(CN1CCc2nc(-c3ccc(OCc4ccc(F)c(F)c4)cc3)ncc2C1)C(=O)O` (stereo not shown) [Compound 11, 3-(2-(4-((3,4-difluorobenzyl)oxy)phenyl)-7,8-dihydropyrido[4,3-d]pyrimidin-6(5H)-yl)-2-methylpropanoic acid], the pEC50 on human S1PR1 receptor was less than 6.00; at human S1PR3 receptor, less than 6.00; on human S1PR5 receptor (setting [1]), more than 8.00.
For `Cc1cccc(C)c1COc1ccc(-c2ncc3c(n2)CCN(CC(C)C(=O)O)C3)cc1` (stereo not shown) [Compound 15, 3-(2-(4-((2,6-dimethylbenzyl)oxy)phenyl)-7,8-dihydropyrido[4,3-d]pyrimidin-6(5H)-yl)-2-methylpropanoic acid], the pEC50 on human S1PR1 receptor was more than 6.00; at human S1PR3 receptor it was less than 6.00; at human S1PR5 receptor (setting [1]) it was more than 8.00.
Turning to `CC(CN1CCc2nc(-c3ccc(OCc4cccc(F)c4F)cc3)ncc2C1)C(=O)O` (stereo not shown) [Compound 16, 3-(2-(4-((2,3-difluorobenzyl)oxy)phenyl)-7,8-dihydropyrido[4,3-d]pyrimidin-6(5H)-yl)-2-methylpropanoic acid], the pEC50 is more than 6.00 at human S1PR1 receptor, less than 6.00 at human S1PR3 receptor and more than 8.00 at human S1PR5 receptor (setting [1]).
With `CC(CC(=O)O)CN1CCc2nc(-c3ccc(OCc4ccccc4)cc3)ncc2C1` (stereo not shown) [Compound 21, 4-(2-(4-(benzyloxy)phenyl)-7,8-dihydropyrido[4,3-d]pyrimidin-6(5H)-yl)-3-methylbutanoic acid], the pEC50 is less than 6.00 at human S1PR1 receptor, less than 6.00 at human S1PR3 receptor and 7.00 to 8.00 on human S1PR5 receptor (setting [1]).
`CC(CC(=O)O)N1CCc2nc(-c3ccc(OCc4ccccc4)cc3)ncc2C1` (stereo not shown) [Compound 36, 3-(2-(4-(benzyloxy)phenyl)-7,8-dihydropyrido[4,3-d]pyrimidin-6(5H)-yl)butanoic acid]: the results for the negative logarithm of the EC50 (pEC50) at human S1PR1 receptor, at human S1PR3 receptor and at human S1PR5 receptor (setting [1]) were less than 6.00, less than 6.00 and 6.00 to 7.00, respectively.
Turning to `O=C(O)CCCN1CCc2nc(-c3ccc(OCc4ccccc4)cc3)ncc2C1` [Compound 37, 4-(2-(4-(benzyloxy)phenyl)-7,8-dihydro-dihydropyrido[4,3-d]pyrimidin-6(5H)-yl)butanoic acid], the pEC50 on human S1PR1 receptor was less than 6.00; at human S1PR3 receptor, less than 6.00; at human S1PR5 receptor (setting [1]), 7.00 to 8.00.
On to `O=C(O)CC1(CN2CCc3nc(-c4ccc(OCc5ccc(Cl)cc5)cc4)ncc3C2)CC1` [Compound 286, 2-((4(2-(4-((4-chlorobenzyl)oxy)phenyl)-7,8-dihydropyrido[4,3-d]pyrimidin-6(5H)-yl)methyl)cyclopropyl)acetic acid], for which the negative logarithm of the EC50 (pEC50) at human S1PR5 receptor (setting [1]) is 6.00 to 7.00.
On to `CC(CC(=O)O)CN1Cc2cnc(-c3ccc(OCc4ccc(Cl)cc4)cc3)nc2CC12CCC2` (stereo not shown) [Compound 326, 4-(2′-(4-((4-chlorobenzyl)oxy)phenyl)-5′H-spiro[cyclobutane-1,7′-pyrido[4,3-d]pyrimidin]-6′(8′H)-yl)-3-methylbutanoic acid], for which the pEC50 at human S1PR3 receptor was less than 6.00; on human S1PR5 receptor ((1): determined with method 1, read-out: S1P5 EC50 range (bound printed instead of class symbol)), less than 6.00.
For `O=C(O)CC1(CN2CCc3nc(-c4ccc(OCc5cccc(Cl)c5)cc4)ncc3C2)CC1` [Compound 327, 2-((4(2-(4-((3-chlorobenzyl)oxy)phenyl)-7,8-dihydropyrido[4,3-d]pyrimidin-6(5H)-yl)methyl)cyclopropyl)acetic acid], the pEC50 on human S1PR5 receptor (setting [1]) was 5.00 to 6.00.
